Source: US20220168309A1 (F-STAR THERAPEUTICS, INC., priority 2019, published 2022)

target: STING (Homo sapiens, UniProt Q86WV6); test: STING antagonist activity, cell-based ISG54 promoter-reporter luciferase measurement of IRF activity (THP-1 dual / RAW-ISG cells); conditions: Antagonist Activity of Exemplary Compounds; cell line and agonist not given; read-out: IC50
Method: THP-1 dual cells (InvivoGen) were cultured under 5% CO2 at 37° C. in RPMI containing 10% fetal bovine serum (FBS), 100 IU mL-1 penicillin and 100 μg mL-1 streptomycin. RAW-ISG cells (InvivoGen) were cultured under 5% CO2 at 37° C. in DMEM containing 10% fetal bovine serum (FBS), 100 IU mL-1 penicillin and 100 μg mL-1 streptomycin. THP-1 dual cells were seeded into the 96 well assay plate on the day of assay whereas RAW cells were seeded into the 96 well assay plate 18 hours before the assay.
(§1) 50,000 cells seeded in a 96-well flat bottom white assay plate were treated with different concentrations (10 uM to 0.01 uM) of compounds for 1 h followed by STING induction with either 30 nM SB 11285 or 10 ug/mL 2′-3′ cGAMP. The cells were then incubated for 20 hours @ 37° C. in CO2 incubator before measuring IRF activation by using Quanti-Luc (InvivoGen). The % inhibition was calculated as 100−{[(luminescence of COI treated well/luminescence of non-COI treated well)/100]×100}. IC50 was calculated by plotting in Xlfit.
as §1, with “1 μM” for “30 nM”
THP1-Dual-WT cells (InvivoGen) were plated into 96-well flat bottom plate at 5×10^4 cells/140 μL/well in triplicate. Cells were then treated with diluted antagonist compounds at 10 μL/well for 1 h, followed by treatment with compounds or 2′3′-cGAMP/lipo mixture for 18 h. The levels of IRF activity were determined using Quanti-luc (InvivoGen) and calculated against IRF activity in DMSO-treated cells. IC50 and CC50 values were calculated using Xlfit.

Sequence of STING (Q86WV6 whole entry): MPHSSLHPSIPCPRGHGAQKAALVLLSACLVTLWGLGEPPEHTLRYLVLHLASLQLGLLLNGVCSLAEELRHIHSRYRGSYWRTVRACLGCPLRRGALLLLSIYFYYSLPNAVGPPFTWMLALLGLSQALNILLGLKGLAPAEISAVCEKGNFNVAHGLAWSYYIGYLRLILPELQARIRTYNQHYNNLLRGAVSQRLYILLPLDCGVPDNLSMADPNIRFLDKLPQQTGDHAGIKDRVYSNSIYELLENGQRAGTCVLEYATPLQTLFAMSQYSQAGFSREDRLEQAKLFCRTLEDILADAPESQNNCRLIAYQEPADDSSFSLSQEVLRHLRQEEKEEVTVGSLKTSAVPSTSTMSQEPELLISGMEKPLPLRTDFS

Row | Structure (SMILES) | IC50 [µM]
1 | COC(=O)CCCCCCCCCCCCCCCn1cnc2ncnc(Cl)c21 [Compound 1] | 1 to 5
2 | COC(=O)CCCCCCCCCCCCCCCn1cnc2nc(Cl)ncc21 [Compound 2] | 10 to 20
3 | COC(=O)CCCCCCCCCCCCCCCn1cnc2ncncc21 [Compound 3] | > 20
4 | COC(=O)CCCCCCCCCCCCCCCn1ccc2nc(Cl)nc(Cl)c21 [Compound 4] | > 20
5 | COC(=O)CCCCCCCCCCCCCCCn1cnc2nc(N)nc(Cl)c21 [Compound 5] | 5 to 10
6 | COC(=O)CCCCCCCCCCn1cnc2nc(Cl)nc(Cl)c21 [Compound 7] | 0.001 to 1
7 | CCOC(=O)Cn1cnc2nc(Cl)nc(Cl)c21 [Compound 8] | 0.001 to 1
8 | COC(=O)CCCCCCCCCCCCCCCn1cnc2nc(Cl)nc(N)c21 [Compound 9, methyl (6-amino-2-chloro-7H-purin-7-yl)hexadecanoate] | 1 to 5
9 | O=C(O)CCCCCCCCCCCCCCCn1cnc2nc(Cl)nc(O)c21 [Compound 10, 16-(2-chloro-6-hydroxy-7H-purin-7-yl)hexadecanoic acid] | > 20
10 | COC(=O)CCCCCCCCCCCCCCCn1cnc2nc(Cl)nc(O)c21 [Compound 11, methyl 16-(2-chloro-6-hydroxy-7H-purin-7-yl)hexadecanoate] | 10 to 20
11 | CCOC(=O)CCCCCCCn1cnc2nc(Cl)nc(Cl)c21 [Compound 12] | 0.001 to 1
12 | COC(=O)CCCCCCn1cnc2nc(Cl)nc(Cl)c21 [Compound 13] | 0.001 to 1
13 | CCCCCCCCCCCCCCC(C(=O)OCc1ccc(OC)cc1)n1cnc2c(Cl)nc(Cl)nc21 (stereo not drawn) [Compound 15, 4-methoxybenzyl 2-(2,6-dichloro-9H-purin-9-yl)hexadecanoate] | > 20
14 | CCCCCCCCCCCCCCC(C(=O)O)n1cnc2c(Cl)nc(Cl)nc21 (stereo not drawn) [Compound 16] | 10 to 20
15 | CCCCCCCCCCCCCCC(C(=O)O)n1ccc2c(Cl)nc(Cl)nc21 (stereo not drawn) [Compound 17, 2-(2,4-dichloro-7H-pyrrolo[2,3-d]pyrimidin-7-yl)hexadecanoic acid] | > 20
16 | CCCCCCCCC(C(=O)OCC)n1cnc2c(Cl)nc(Cl)nc21 (stereo not drawn) [Compound 18, ethyl 2-(2,6-dichloro-9H-purin-9-yl)decanoate] | 1 to 5
17 | CCCCCCCCC(C(=O)O)n1cnc2c(Cl)nc(Cl)nc21 (stereo not drawn) [Compound 19, 2-(2,6-dichloro-9H-purin-9-yl)decanoic acid] | 5 to 10
18 | COC(=O)CCCCCCCCCCCCCCCn1cnc2c(NCCS(N)(=O)=O)nc(Cl)nc21 [Compound 21] | 10 to 20
19 | COc1ccc(Cn2cnc3c(NCCCCCC(=O)O)nc(Cl)nc32)cc1 [Compound 22, 6-((2-chloro-9-(4-methoxybenzyl)-9H-purin-6-yl)amino)hexanoic acid] | > 20
20 | CNc1nc(Cl)nc2ncn(CCCCCCCCCCCCCCCC(=O)OC)c12 [Compound 23, methyl 16-(2-chloro-6-(methylamino)-7H-purin-7-yl)hexadecanoate] | > 20
21 | COC(=O)CCCCCCCCCCCCCCCn1cnc2nc(Cl)nc(N(C)C)c21 [Compound 24, methyl 16-(2-chloro-6-(dimethylamino)-7H-purin-7-yl)hexadecanoate] | 1 to 5
22 | OCCCCCCCCCCCCCCCCn1cnc2nc(Cl)nc(Cl)c21 [Compound 25, 16-(2,6-dichloro-7H-purin-7-yl)hexadecan-1-ol] | 0.001 to 1
23 | CCCCCCCCCCCCCCCCn1cnc2nc(Cl)nc(Cl)c21 [Compound 26, 2,6-dichloro-7-hexadecyl-7H-purine] | 0.001 to 1
24 | COC(=O)CCCCCCCCCCCCCCCn1cnc2ncnc(SC)c21 [Compound 27, methyl 16-(6-(methylthio)-7H-purin-7-yl)hexadecanoate] | 5 to 10
25 | COC(=O)CCCCCCCCCCCCCCCn1cnc2ncnc(S(C)(=O)=O)c21 [Compound 28, methyl 16-(6-(methylsulfonyl)-7H-purin-7-yl)hexadecanoate] | 0.001 to 1
26 | COC(=O)CCCCCCCCCCCCCCCn1c(C)nc2nc(Cl)nc(Cl)c21 [Compound 29, methyl 16-(2,6-dichloro-8-methyl-7H-purin-7-yl)hexadecanoate] | 0.001 to 1

Row | Structure (SMILES) | IC50 [µM]
27 | O=C(O)CCCCCCCCCCCCCCCn1cnc2nc(Cl)nc(Cl)c21 [Compound 30, 16-(2,6-dichloro-7H-purin-7-yl)hexadecanoic acid] | 1 to 5
28 | COC(=O)CCCCCn1cnc2nc(Cl)nc(Cl)c21 [Compound 31, methyl 6-(2,6-dichloro-7H-purin-7-yl) hexanoate] | 1 to 5
29 | COC(=O)CCCCn1cnc2nc(Cl)nc(Cl)c21 [Compound 32, methyl 5-(2,6-dichloro-7H-purin-7-yl)pentanoate] | 1 to 5
30 | CC(=O)OCCCCCn1cnc2nc(Cl)nc(Cl)c21 [Compound 33, 5-(2,6-dichloro-7H-purin-7-yl)pentyl acetate] | 1 to 5
31 | COC(=O)CCCCCCCCCCCCCCCn1c(C)nc2c(Cl)nc(Cl)nc21 [Compound 34, methyl 16-(2,6-dichloro-8-methyl-9H-purin-9-yl)hexadecanoate] | 10 to 20
32 | Clc1nc(Cl)c2c(ncn2CCCCCCCCCCCCn2cnc3nc(Cl)nc(Cl)c32)n1 [Compound 35, 1,12-bis(2,6-dichloro-7H-purin-7-yl) dodecane] | 1 to 5
33 | CCCCCCCCC(C(=O)OCC)n1cnc2nc(Cl)nc(Cl)c21 (stereo not drawn) [Compound 36, ethyl 2-(2,6-dichloro-7H-purin-7-yl) decanoate] | 1 to 5
34 | COC(=O)CCCn1cnc2nc(Cl)nc(Cl)c21 [Compound 37, methyl 4-(2,6-dichloro-7H-purin-7-yl)butanoate] | 5 to 10
35 | COC(=O)CCCCCCCCCCCCCCCn1cnc2nc(F)nc(Cl)c21 [Compound 38, methyl 16-(6-chloro-2-fluoro-7H-purin-7-yl)hexadecanoate] | 1 to 5
36 | COC(=O)CCCCCCCCCCCCCCCn1cnc2nc(Cl)nc(S(C)(=O)=O)c21 [Compound 39, methyl 16-(2-chloro-6-(methylsulfonyl)-7H-purin-7-yl) hexadecanoate] | > 20
37 | OCCCCCCCCCCn1cnc2nc(Cl)nc(Cl)c21 [Compound 40, 10-(2,6-dichloro-7H-purin-7-yl)decan-1-ol] | 0.001 to 1
38 | COC(=O)CCCCCCCCCCCCCCCn1cnc2nccc(Cl)c21 [Compound 41, methyl 16-(7-chloro-1H-imidazo[4,5-b]pyridin-1-yl) hexadecanoate] | > 20
39 | COC(=O)CCCCCCCCCCCCCCCn1cnc2c(Cl)ccnc21 [Compound 42, methyl 16-(7-chloro-3H-imidazo[4,5-b]pyridin-3-yl) hexadecanoate] | > 20
40 | COC(=O)CCCCCCCCCCCCCCCn1cnc2ccnc(Cl)c21 [Compound 43] | > 20
41 | COC(=O)CCCCCCCCCCCCCCCn1cnc2c(Cl)nccc21 [Compound 44] | > 20
42 | OCCCCCCn1cnc2nc(Cl)nc(Cl)c21 [Compound 45, 6-(2,6-dichloro-7H-purin-7-yl)hexan-1-ol] | 1 to 5
43 | COC(=O)CCCCCCCCCCCCCCCn1cnc2nc(NC(C)=O)nc(Cl)c21 [Compound 46, methyl 16-(2-acetamido-6-chloro-7H-purin-7-yl) hexadecanoate] | > 20
44 | COC(=O)CCCCCCCCCCCCCCCn1cnc2c(Cl)nc(NC(C)=O)nc21 [Compound 47, methyl 16-(2-acetamido-6-chloro-9H-purin-9-yl)hexadecanoate] | > 20
45 | OCCOCCOCCOCCn1cnc2nc(Cl)nc(Cl)c21 [Compound 48, 2-(2-(2-(2-(2,6-dichloro-7H-purin-7-yl)ethoxy)ethoxy)ethoxy)ethan-1-ol] | 1 to 5
46 | CC(C)n1cnc2nc(Cl)nc(Cl)c21 [Compound 49, 2,6-dichloro-7-isopropyl-7H-purine] | > 20
47 | COC(=O)CCCCCCCCCCCCCCCn1ccc2c(Cl)nc(Cl)nc21 [Compound 50, methyl 16-(2,4-dichloro-7H-pyrrolo[2,3-d]pyrimidin-7-yl)hexadecanoate] | > 20
48 | OCCOCCOCCOCCn1cnc2c(Cl)nc(Cl)nc21 [Compound 51, 2-(2-(2-(2-(2,6-dichloro-9H-purin-9-yl)ethoxy)ethoxy)ethoxy)ethan-1-ol] | > 20
49 | COC(=O)CCCCCCCCCCCCCCCn1c(O)nc2nc(Cl)nc(Cl)c21 [Compound 52, methyl 16-(2,6-dichloro-8-oxo-8,9-dihydro-7H-purin-7-yl)hexadecanoate] | > 20
50 | COC(=O)CCCCCCCCCCCCCCCn1c(O)nc2c(Cl)nc(Cl)nc21 [Compound 53, methyl 16-(2,6-dichloro-8-oxo-7,8-dihydro-9H-purin-9-yl)hexadecanoate] | > 20
51 | Clc1nc(Cl)c2c(ncn2C/C=C/Cn2cnc3nc(Cl)nc(Cl)c32)n1 [Compound 54, (E)-1,4-bis(2,6-dichloro-7H-purin-7-yl)but-2-ene] | 1 to 5
